Assay results: ChEMBL document CHEMBL1201862, “PubChem BioAssay data set” (2004)
Where “and” joins values, the source holds several entries; their conditions need not be identical. Equal entries are not always repeated.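 Cultured in 96-well plates, cells were exposed to test compound for 48 hours across five concentrations. Abbreviation: GI50, concentration required for 50% inhibition of growth.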 Calls of active or inactive are those of the source. Cut-off read from the data, not from the text of the source: active = GI50 up to about 1.1 µM and inactive = higher.

Legend:
Experiment in all cases: DTP human tumour cell line panel, 48 h
HT-29 = system: HT-29
K562 = system: K562
M19-MEL = system: M19-MEL
Malme-3M = system: Malme-3M
RPMI-8226 = system: RPMI-8226
NCI-H522 = system: NCI-H522
SF-268 = system: SF-268
HCT-15 = system: HCT-15
SN12C = system: SN12C
SR = system: SR
NCI-H226 = system: NCI-H226
ACHN = system: ACHN
A549 = system: A549
NCI-H23 = system: NCI-H23
DMS-273 = system: DMS-273
SF-539 = system: SF-539
LXFL 529 = system: LXFL 529
SNB-75 = system: SNB-75
DLD-1 = system: DLD-1
LOX IMVI = system: LOX IMVI
EKVX = system: EKVX
U-251 = system: U-251
SNB-19 = system: SNB-19
A498 = system: A498
TK-10 = system: TK-10
NCI/ADR-RES = system: NCI/ADR-RES
HOP-62 = system: HOP-62
IGROV-1 = system: IGROV-1
HCC 2998 = system: HCC 2998
SK-MEL-28 = system: SK-MEL-28
UO-31 = system: UO-31
MCF7 = system: MCF7
OVCAR-5 = system: OVCAR-5
UACC-257 = system: UACC-257
SK-OV-3 = system: SK-OV-3
KM12 = system: KM12
HOP-92 = system: HOP-92
RXF 393 = system: RXF 393
DMS-114 = system: DMS-114
SK-MEL-2 = system: SK-MEL-2
UACC-62 = system: UACC-62
OVCAR-4 = system: OVCAR-4
OVCAR-3 = system: OVCAR-3
MDA-MB-435 = system: MDA-MB-435
Hs-578T = system: Hs-578T
CCRF-CEM = system: CCRF-CEM
SK-MEL-5 = system: SK-MEL-5
786-0 = system: 786-0
MDA-N = system: MDA-N
OVCAR-8 = system: OVCAR-8
MDA-MB-231 = system: MDA-MB-231
M14 = system: M14
T47D = system: T47D
KM-20L2 = system: KM-20L2
MOLT-4 = system: MOLT-4
PC-3 = system: PC-3
COLO 205 = system: COLO 205
HCT-116 = system: HCT-116
BT-549 = system: BT-549
SW-620 = system: SW-620
SNB-78 = system: SNB-78
HL-60 = system: HL-60
NCI-H460 = system: NCI-H460
DU-145 = system: DU-145
CAKI-1 = system: CAKI-1
SF-295 = system: SF-295

## COc1ccc(C(c2ccccc2)C(C)C(=O)c2c(C)cc(C)cc2C)cc1 (stereo unspecified)
HT-29
  GI50: 47.4 µM (inactive) and 56 µM (inactive)
K562
  GI50: 94.2 µM (inactive) and 53.7 µM (inactive)
M19-MEL
  GI50: 42.5 µM (inactive) and 59 µM (inactive)
Malme-3M
  GI50: 57.7 µM (inactive)
RPMI-8226
  GI50: 69.8 µM (inactive) and 79.8 µM (inactive)
NCI-H522
  GI50: 37.8 µM (inactive) and 53.5 µM (inactive)

## c1ccncc1
SF-268
  GI50: > 100 µM (inactive)
HCT-15
  GI50: > 100 µM
SN12C
  GI50: > 100 µM (inactive)
SR
  GI50: > 100 µM (inactive)
NCI-H226
  GI50: > 100 µM (inactive)
ACHN
  GI50: > 100 µM (inactive)
A549
  GI50: > 100 µM (inactive)
NCI-H23
  GI50: > 100 µM (inactive)
DMS-273
  GI50: > 100 µM (inactive)
Malme-3M
  GI50: > 100 µM (inactive)
SF-539
  GI50: > 100 µM (inactive)
LXFL 529
  GI50: > 100 µM (inactive)
SNB-75
  GI50: 85.5 µM (inactive)
DLD-1
  GI50: > 100 µM (inactive)
LOX IMVI
  GI50: > 100 µM (inactive)

## O=C(/C=C/c1ccc(O)c(O)c1)c1ccc(O)cc1O [BUTEIN]
EKVX
  GI50: 26.9 µM (inactive)
U-251
  GI50: 9.25 µM (inactive)
SNB-19
  GI50: 18.5 µM (inactive)
A498
  GI50: 17.7 µM (inactive)
TK-10
  GI50: 19.4 µM (inactive)
NCI/ADR-RES
  GI50: 17.4 µM (inactive)
HOP-62
  GI50: 17.4 µM (inactive)
SF-268
  GI50: 14.8 µM (inactive)
HCT-15
  GI50: 16.3 µM
SN12C
  GI50: 14.5 µM (inactive)
IGROV-1
  GI50: 15.2 µM (inactive)
SR
  GI50: 7.1 µM (inactive)
HCC 2998
  GI50: 17.1 µM (inactive)
SK-MEL-28
  GI50: 14.5 µM (inactive)
UO-31
  GI50: 14 µM (inactive)
NCI-H226
  GI50: 17.3 µM (inactive)
MCF7
  GI50: 3.98 µM (inactive)
HT-29
  GI50: 17.5 µM (inactive)
K562
  GI50: 4.27 µM (inactive)
OVCAR-5
  GI50: 17.4 µM (inactive)
UACC-257
  GI50: 15.6 µM (inactive)
ACHN
  GI50: 18 µM (inactive)
A549
  GI50: 25 µM (inactive)
SK-OV-3
  GI50: 15.7 µM (inactive)
KM12
  GI50: 10.2 µM (inactive)
HOP-92
  GI50: 15.7 µM (inactive)
RXF 393
  GI50: 12.2 µM (inactive)
DMS-114
  GI50: 2.47 µM (inactive)
NCI-H23
  GI50: 16.7 µM (inactive)
SK-MEL-2
  GI50: 14.9 µM (inactive)
DMS-273
  GI50: 10.6 µM (inactive)
UACC-62
  GI50: 16.9 µM (inactive)
OVCAR-4
  GI50: 19.1 µM (inactive)
OVCAR-3
  GI50: 15.4 µM (inactive)
MDA-MB-435
  GI50: 9.08 µM (inactive)
Hs-578T
  GI50: 19.4 µM (inactive)
M19-MEL
  GI50: 14 µM (inactive)
CCRF-CEM
  GI50: 3.75 µM (inactive)
SK-MEL-5
  GI50: 11.6 µM (inactive)
786-0
  GI50: 12 µM (inactive)
MDA-N
  GI50: 6.14 µM (inactive)
OVCAR-8
  GI50: 17.9 µM (inactive)
Malme-3M
  GI50: 13.9 µM (inactive)
SF-539
  GI50: 11.2 µM (inactive)
SNB-75
  GI50: 11.1 µM (inactive)
RPMI-8226
  GI50: 10.5 µM (inactive)
DLD-1
  GI50: 13.9 µM (inactive)
MDA-MB-231
  GI50: 15.8 µM (inactive)
M14
  GI50: 16.3 µM (inactive)
T47D
  GI50: 14.4 µM (inactive)
KM-20L2
  GI50: 17.1 µM (inactive)
MOLT-4
  GI50: 7.64 µM (inactive)
LOX IMVI
  GI50: 8.26 µM (inactive)
PC-3
  GI50: 19.6 µM (inactive)
COLO 205
  GI50: 14.5 µM (inactive)
HCT-116
  GI50: 13 µM (inactive)
BT-549
  GI50: 9.27 µM (inactive)
SW-620
  GI50: 8.53 µM (inactive)
SNB-78
  GI50: 20.8 µM (inactive)
NCI-H522
  GI50: 2.25 µM (inactive)
HL-60
  GI50: 3.29 µM (inactive)
NCI-H460
  GI50: 15.2 µM (inactive)
DU-145
  GI50: 9.1 µM (inactive)
CAKI-1
  GI50: 10.5 µM (inactive)
SF-295
  GI50: 22.3 µM (inactive)
